Measurements from publication PMC5820429 (Influenza and Other Respiratory Viruses, 2018).

Set-up: species or system patients
Conditions: in vivo

CCOC(=O)C1=C[C@@H](OC(CC)CC)[C@H](NC(C)=O)[C@@H](N)C1 [oseltamivir]
Time to alleviation of symptoms, shorter in treated vs non‐treated patients: 1 days
